Measurements: a melting point compilation (Tetko et al.; mined from patent text by program, amines drawn as free bases though some values may be those of a salt)

| SMILES | melting point [°C] |
| --- | --- |
| Cc1cc([C@@H](O)[C@@H](C)N2CCC(O)(c3ccc(C(F)(F)F)cc3)CC2)cc(C)c1O[Si](C(C)C)(C(C)C)C(C)C (relative stereo) | 177 to 178 |
| COC(=O)C(=CNc1ccc(O)cc1)C(=O)C=CC1CC=CCC1 (stereo not given) | 151 to 153 |
| Cc1noc(NS(=O)(=O)c2sccc2-c2ccc3c(c2)OCO3)c1Br | 183 to 186 |
| O=c1ccn(-c2cccc(C(F)(F)F)c2)nc1-c1c[nH]nc1-c1ccccc1 | 206 to 208 |
| CS(=O)(=O)Nc1ccc(C(=O)NCCN2CCc3ccsc3C2c2ccccc2)cc1 (stereo not given) | 185 to 187 |
| Cc1nc(C(N)=O)c2n1-c1ccc(Cl)cc1C(c1ccccc1F)=NC2 | 300 to 305 |
| CN[C@@H]1COc2ccc(Cl)c(-c3ccccc3Cl)c2O1 | 105 |
| CC1=CC(=O)N(c2cc(NS(=O)(=O)c3cccc4c(N(C)C)cccc34)cc(N3C(=O)C=C(C)C3=O)c2)C1=O | 230 |
| CCOC(=O)c1ccc(-c2nn(Cc3ccc(Cl)s3)c3ccccc23)o1 | 124 to 126 |
| CC(C)(C)OC(=O)CN1CCN(c2ccnc(-c3nc(=O)c4ccccc4s3)c2)C1=O | 192 to 194 |
| CSc1nc(-c2ccncc2)cc(=O)n1C | 176 to 178 |
| N#Cc1cnn2c1NCCC2c1cccc(C(F)(F)F)c1 (stereo not given) | 192 to 194 |
| CC(=O)c1ccc2c(c1)Cc1cc(C#N)ccc1-2 | 182 to 188 |
| CC(C)(C)Nc1cc(Cl)nc(NC(C)(C)C)n1 | 128 to 130 |
| NC(=O)c1c(Cl)c(-c2ccccc2)n2c1CN(S(=O)(=O)c1ccc(-c3ccccn3)s1)CC2 | 222 to 224 |
| O=[N+]([O-])c1cnn2c1-c1ccccc1NC2 | 156 to 157 |
| CNc1ccnc2c1c(=O)n(C)c(=O)n2C | 179 to 180 |

| SMILES | melting point [°C] |
| --- | --- |
| COc1ccc2c(c1)C(=O)N(c1ccc3ccn(C)c3c1)C2 | 158 to 161 |
| O=C(O)CCc1cnoc1-c1ccc(F)cc1F | 125 to 126 |
| O=[N+]([O-])c1cccnc1Nc1ccc2c(c1)OCO2 | 146 to 148 |
| CCCNCC(O)c1cccc(Cl)c1 (stereo not given) | 69.5 to 71 |
| COc1ccc2c(c1)C(=O)C(=O)N2CCN(C(C)C)C(C)C | 81 to 82.5 |
| C=Cc1ccc([Si](C)(C)C)c(C(=O)NCC)c1Cl | 127 to 128 |
| N#CCCc1c(-c2ccccc2)c(=O)[nH]c2cc(Cl)ccc12 | 252 to 254 |
| COc1cc([C@H]2CC[C@H](c3cc(OC)c(OC)c(OC)c3)C2=O)cc(OC)c1OC (relative stereo) | 140 to 142 |
| Cn1ncc2[nH]c3ccc(Cc4ccccc4)cc3c(=O)c21 | 282 |
| O=C(Nc1nnn[nH]1)c1cnc2sc3ccc(Cl)cc3n2c1=O | > 300 |
| COc1ccc(/C(=C/C=C/C(=O)O)C(C)C)cc1 | 132 to 133 |
| C=CCOc1cc(Br)ccc1C(C)=NO | 115 |
| C[C@@H]1CCC[C@H](C)N1CCNc1ccnc2cc(Cl)ccc12 | 138 to 139 |
| COc1ccc(OC)c(Nc2nc(-c3ccc(F)cc3)cs2)c1 | 160 |
| COc1cc(F)ccc1CCN1c2nc(-c3ccncn3)cc(=O)n2CCC1(C)C | 196 to 198 |
| CCN(C(=O)C1CC1)c1cccc(-c2ccnc3c(C(=O)c4ccccc4)cnn23)c1 | 153 to 155 |

Results, then the molecule that gave them:

| melting point [°C] | SMILES |
| --- | --- |
| 229 to 230 | CCN1CCN(CCCOc2cc3ncc(C#N)c(Nc4ccc(Sc5nc(C)c(C)n5CC)c(Cl)c4)c3cc2OC)CC1 |
| 164 to 167 | Cc1nc2ccc(CNS(=O)(=O)c3ccccc3)cc2n1Cc1ccccc1Cl |
| 233 to 235 | O=c1[nH]c2cccnc2n1-c1ccccc1 |
| 99 to 103 | O=C(Nc1ccc2scnc2c1C1CCN(C/C=C/c2ccc(Cl)cc2)CC1)c1ccnc(Cl)c1 |
| 158 to 161 | CC(=O)NNc1ccnc2c(NC(=O)c3c(Cl)cccc3Cl)ccc(Cl)c12 |
| 95 to 97 | O=C(O)CCCCCc1nn(-c2ccccc2)c2c1CCCC2 |
| 252 to 254 | COC(=O)CNC(=O)c1cc2cc(Cl)ccc2[nH]1 |
| 88 to 90 | Cc1cc(S(=O)(=O)Nc2ccc(N)cc2)c2c(C)ccc(C(C)C)cc1-2 |
| 100 to 104 | CCCCCCCCCCCCCCCC(=O)OC(CCCCCCCCCCCCCCC)CC(=O)NCCC(=O)NC(CCC(=O)O)C(=O)O (stereo not given) |
| 117 to 118 | C=CCn1nc(-c2sc(C(=O)NCc3ccccn3)nc2-c2ccccc2)ccc1=O |
| 192 to 194 | O=C(O)[C@H]1C=C[C@@H](c2ccc([N+](=O)[O-])cc2)n2c(=O)n(CCCl)c(=O)n21 (relative stereo) |
| 192 to 193 | NC1=NS(=O)(=O)N=C1NCCCN(Cc1ccccc1)c1ccccn1 |
| 220 to 224 | O=C(O)Cc1c(C(=O)c2ccc(Cl)cc2)[nH]c2ccc(Cl)cc12 |
| 158 to 160 | N#Cc1ccc(COc2ccc3c(c2)CCNC3=O)cc1 |
| 165 to 166 | CC12CCC3c4ccc(O)cc4CC(Sc4ccc(Br)cc4)C3C1CCC2O (stereo not given) |
| 118 to 120 | CCCCNc1ccc(Nc2ccccc2)c2c1C(=O)c1ccccc1C2=O |
| 196 | COc1cc2c(=O)cc3c4ccccc4sn3c2c(OC)c1OC |
| 318 to 320 | CCC1CCc2[nH]cc3c(=O)n(-c4ccc(Cl)cc4)nc-3c2C1 (stereo not given) |
| 315 to 320 | COc1cccc2c(=O)c3c(Cl)ccc([N+](=O)[O-])c3[nH]c12 |

| melting point [°C] | SMILES |
| --- | --- |
| 204 to 206 | Cc1oc(-c2ccccc2)nc1CCOc1ccc(C[C@H](NC(=O)C=Cc2cccc(Cl)c2)C(=O)O)cc1 |
| 186 | O=C(NC(=O)c1ccc(F)cc1Cl)Nc1ccc(OC(F)(F)C(F)Cl)c(Cl)c1 (stereo not given) |
| 205 to 209 | Cc1csc2nc(S(=O)(=O)Nc3cccc4sccc34)nn12 |
| 148 to 151 | CN(C)c1cccc(CNc2nc(Nc3cccc(NS(C)(=O)=O)c3)nc3[nH]cnc23)c1 |
| 235 to 237 | Cc1c(Nc2c(C#N)cncc2-c2cc3cc(C=O)ccc3o2)ccc2[nH]ccc12 |
| 100 | CCC1OC(=O)C(C)C(OC2CC(C)(OC)C(O)C(C)O2)C(C)C(OC2OC(C)CC(N(C)C)C2O)C(C)(OC)CC(C)C(=O)C(C)C(O)C1(C)O (stereo not given) |
| 108 | C=CCOc1ccc2ccc(NC(=O)c3ccc(OC)cc3)nc2n1 |
| 123 to 125 | CS(=O)(=O)c1cc(C(F)(F)F)ccc1C(=O)CC(=O)C1CC1 |
| 109 to 112 | O=c1occ(CSc2ccc([N+](=O)[O-])cc2)o1 |
| 220 to 224 | CC(=O)Oc1cc(C)cc(C(=O)N[C@@H](Cc2ccccc2)[C@H](O)C(=O)O)c1C |
| 289 to 291 | CC(C)(C)c1ccc(C(=O)Nc2cn3cc(-n4ccnc4)ccc3n2)cc1 |
| 187 to 190 | Cc1ccc2c(=O)[nH]sc2n1 |
| 156 to 158 | CNC(=O)c1cnc(N2CCOCC2)cc1-c1ccccc1C |
| 144 to 146 | N#Cc1ccc(OCCO)c(C(N)=O)c1 |
| 103 | CCOC(=O)c1ccc(O[Si](C)(C)C(C)(C)C)c(OC)c1 |
| 84 to 85 | CCSc1nn2ccccc2c1C(C)=O |
| 280 to 282 | CC1CCN(c2ccc(Nc3ncc4c(n3)S/C(=C/c3ccc([N+](=O)[O-])cc3)C(=O)N4)cc2)CC1 |
| > 250 | NCC1Cc2cc(-c3ccccc3Cl)cc(F)c2O1 (stereo not given) |
